Assay [1] relates to THR (ANGPTL4, CPT1A, DIO1 RNA in Huh-7 cells). Nature of the assay: Differential gene expression assay in Huh-7 cells. It counts as cell-based, human. The following applies: Homo sapiens. The protocol: Hepatoma-derived Huh-7 cells (JCRB Cell Bank, JCRB0403) were obtained directly from the repository, which performed cell line authentication via isozyme analysis and comprehensively tested for microbial contamination, viral contamination, and cross culture contamination. Cells were routinely cultured in DMEM (Corning, 10-013-CM) supplemented with 10% FBS and 1% P/S at 37°C and 5% CO2 until 80–90% confluency. Cells were then detached with 0.05% trypsin (Corning, 25-052-CV), resuspended in TH-free medium (DMEM supplemented with 10% TH-depleted FBS and 1% P/S), and seeded into collagen-coated, 96-well microplates (Corning, 354407) at 5.0 x 10^4 cells/well. After 24 hrs, the culture medium was replaced with treatment media. Cells were treated for 24 hrs. TH-depletion of the FBS via resin treatment was accomplished as previously described. All treatment media were made by mixing test compounds, serially diluted in DMSO, with TH-free medium (0.1% final DMSO concentration).
After 24 hrs in treatment media, both Huh-7 cells and PHH were processed with the TaqMan Fast Advanced Cells-to-Ct Kit (Invitrogen, A35378), according to the manufacturer’s protocol. Briefly, the treatment media was removed and the cells were washed with 50 μL cold 1X phosphate-buffered saline (Corning, 21-040-CM). Fifty μL lysis buffer containing DNase I was added to each well and the plate was incubated on a rotor at RT for 5 mins. Five μL stop solution was then added to each well and after another 2 mins incubation on a rotor at RT, the cell lysates were used for reverse transcription. The resulting cDNA was diluted 1:2 with nuclease-free, distilled water (Invitrogen, 10977015). Gene expression was measured using TaqMan Fast Advanced Master Mix (Applied Biosystems, 4444964) and the following TaqMan Gene Expression assays (Applied Biosystems, 4331182): 18S (Hs99999901_s1), ACTB (Hs01060665_g1), ANGPTL4 (Hs01101123_g1), CPT1A (Hs00912671_m1), DIO1 (Hs00174944_m1), TFG (Hs02832013_g1), THRA (Hs00268470_m1), and THRB (Hs00230861_m1). ACTB and TFG served as control housekeeping genes for Huh-7 assays and 18S and ACTB for PHH assays. Ten μL reactions were run on the qTOWER³ 84 (Analytik Jena). Relative quantification (RQ) of gene expression was calculated via the 2^−ΔΔCt method and dose-response curves were fitted by non-linear regression with variable slope. Statistical analysis was performed in GraphPad Prism 8.
We aimed to develop an in vitro, cell-based assay that is not only amenable to high throughput screening of compounds, but that can also more reliably recapitulate in vivo processes. Because activated THR may function as a transcription factor, we compared the action of THR agonists in a human hepatocyte-derived cell line and in primary human hepatocytes (PHH) by quantifying transcriptional changes resulting from compound treatment (Fig 2A). Cells were cultured in TH-depleted media for 24 hrs and then treated with compounds for 24 hrs. The RNA levels of THR target genes were then measured via RT-qPCR.

The next assay has as its system THR (THRSP RNA in PHH). Nature of the assay: Differential gene expression assay in primary human hepatocytes (PHH). The assay is classed as cell-based. The following applies: Hepatocyte, RT-qPCR, 24 hrs treatment, read-out: PHH EC50 Mean ± SEM. A general note: Real-time PCR tracks product formation cycle by cycle.
For the next assay, the system named is HFD fed rats. Description: High-fat diet fed rat study: serum and hepatic lipid levels. The assay is classed as in vivo. The following applies: 0.5 mg/kg I.P. single dose. The protocol:
Animals were purchased from Vital River Laboratory Animal Technology Co. Ltd. and experiments were conducted at Covance Pharmaceutical R&D (Shanghai) Co., Ltd. (China). Animals were group-housed in polycarbonate cages with corncob bedding under controlled temperature (21–25°C), humidity (40–70%), and a 12-hr light/dark cycle. All procedures performed were in compliance with local animal welfare legislation, Covance global policies and procedures, and the Guide for the Care and Use of Laboratory Animals.
Eighty-four male Sprague Dawley rats, approximately 8 to 11 weeks of age, were fed with either a normal diet, ND (D12450K: 10 kcal% fat, no sucrose), or high-fat diet, HFD (D12109C: 40 kcal% fat, 1.25 gm% cholesterol, 0.5 gm% sodium cholate, 12.5 gm% sucrose). After 12 days of diet consumption, baseline serum total cholesterol and low-density lipoprotein cholesterol (LDL-C) levels were measured with the cobas 6000 c501 Chemistry Analyzer (Roche) to confirm hypercholesterolemia in the HFD fed rats. Animals were then randomized into treatment groups.
Twenty-four hrs after dosing, animals were euthanized by CO2 inhalation and serum and plasma were collected along with liver tissue. Serum total cholesterol and LDL-C levels were determined as described above. […] Caudate lobes of the liver were used for analysis of hepatic total cholesterol (Abcam, ab65390) and triglyceride levels (Abcam, ab65336) via enzyme-linked immunosorbent assay. Right lateral lobes were stored in RNAlater (Invitrogen, AM7020) at -70°C until homogenization with the Scientz-48 TissueLyser LT for downstream gene expression analysis. RNA extraction was performed at WuXi AppTec (Hong Kong) Limited (China) with the RNeasy Mini Kit (Qiagen, 74106) and RNA concentration and quality was determined using the Nanodrop 2000 (Thermo Scientific); additional quality control was assessed with agarose gel electrophoresis. One μg total RNA from each sample was then reverse-transcribed using the High Capacity cDNA Reverse Transcription kit (Applied Biosystems, 4368814) and the resulting cDNA was diluted 1:5 with nuclease-free, distilled water. Gene expression was measured using TaqMan Fast Advanced Master Mix and the following TaqMan Gene Expression assays: Actb (Rn00667869_m1), Cpt1a (Rn00580702_m1), Dio1 (Rn00572183_m1), Me1 (Rn00561502_m1), Rplp1 (Rn03467157_gH), and Thrsp (Rn01511034_m1). Actb and Rplp1 served as control housekeeping genes. Ten μL reactions were run on the qTOWER³ 84. Relative quantification (RQ) of gene expression was calculated via the 2^−ΔΔCt method and statistical analysis was performed in GraphPad Prism 8.0 and Microsoft Excel.

[2] abbreviates: Huh-7, CPT1A RNA, RT-qPCR, 24 hrs treatment, read-out: Huh-7 EC50 Mean ± SEM.
The mark [3] stands for this setting: Huh-7, 24 hrs, n = 2 (Fig 2C), read-out: mean EC50, ANGPTL4.
The mark [4] stands for this setting: Huh-7, 24 hrs, n = 2 (Fig 2C), read-out: mean EC50, CPT1A.
The mark [5] stands for this setting: Huh-7, 24 hrs, n = 2 (Fig 2C), read-out: mean EC50, DIO1.

Read-outs that look alike come from different tables or passages of the source.

In general, EC50 refers to the concentration that produces a half-maximal response. Turning to `Cc1cc(OCC(=O)O)cc(C)c1Cc1ccc(O)c(C(C)C)c1` [GC-1, sobetirome], the EC50 was […] in assay [1] (setting [2]); […] in assay [1] (setting [3]); […] in assay [1] (setting [4]); […] in assay [1] (setting [5]); […] in the assay with THR (THRSP RNA in PHH).
As for `N[C@@H](Cc1cc(I)c(Oc2ccc(O)c(I)c2)c(I)c1)C(=O)O` [T3, triiodothyronine], the half-maximal effective concentration (EC50) is […] in assay [1] (setting [2]); […] in assay [1] (setting [3]); […] in assay [1] (setting [4]); […] in assay [1] (setting [5]); […] in the assay with THR (THRSP RNA in PHH). Besides, the “decrease in serum total cholesterol (pre-dose vs 24 hrs post-dose)” value in the assay on HFD fed rats was determined as 68.2%. Further, the “decrease in serum triglyceride levels (pre-dose vs 24 hrs post-dose)” value with HFD fed rats was found to be 71.2%.

Values taken from paper PMC7732128, “Regulation of gene transcription by thyroid hormone receptor β agonists in clinical development for the treatment of non-alcoholic steatohepatitis (NASH)” (PLoS ONE, 2020).
